Assay results published in patent publication US20090149482A1, “STEREOCHEMICALLY DEFINED DIPEPTIDE ESTERS OF ANTIVIRAL AGENTS FOR ENHANCED OCULAR TREATMENT” (priority 2001, published 2009).
≈ marks a conversion by molar mass, not a printed value. Where “and” joins values, the source holds several entries; their conditions need not be identical. Identical values can stand only once. Like-named read-outs stand apart in the source and are kept apart here.

Experiments:
hPEPT1 = biological target: T1, hPEPT1 (Homo sapiens, UniProt P46059); assay: [3H] Glycylsarcosine uptake and its inhibition in Caco-2 cells (affinity towards peptide transporter); assay type: cell-based; details: for Ki: read-out: Ki
T1 construct: endogenous in cells; host or cells: Caco-2 (human colon carcinoma, ATCC)
T1 sequence (P46059 1-708): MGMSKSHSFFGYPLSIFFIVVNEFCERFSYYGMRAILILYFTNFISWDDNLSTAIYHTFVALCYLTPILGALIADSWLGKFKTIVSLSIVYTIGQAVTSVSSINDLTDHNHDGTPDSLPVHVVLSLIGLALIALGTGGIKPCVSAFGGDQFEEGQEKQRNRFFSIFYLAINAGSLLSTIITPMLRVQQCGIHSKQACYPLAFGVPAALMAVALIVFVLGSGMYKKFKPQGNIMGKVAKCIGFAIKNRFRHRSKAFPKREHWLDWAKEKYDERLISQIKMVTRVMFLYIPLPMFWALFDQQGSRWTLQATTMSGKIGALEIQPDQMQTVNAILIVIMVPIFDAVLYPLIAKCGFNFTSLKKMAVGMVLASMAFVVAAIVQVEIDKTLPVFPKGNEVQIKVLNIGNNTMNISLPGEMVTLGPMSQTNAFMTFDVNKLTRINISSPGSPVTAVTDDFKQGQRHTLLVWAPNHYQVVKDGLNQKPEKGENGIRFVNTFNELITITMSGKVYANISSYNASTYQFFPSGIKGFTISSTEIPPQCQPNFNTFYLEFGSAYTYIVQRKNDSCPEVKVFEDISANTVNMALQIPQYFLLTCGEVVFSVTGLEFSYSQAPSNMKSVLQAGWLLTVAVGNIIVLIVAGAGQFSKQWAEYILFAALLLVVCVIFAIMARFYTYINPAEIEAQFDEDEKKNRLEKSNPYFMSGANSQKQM
Source text: Materials: [^3H] Glycylsarcosine (Gly-Sar; 4 Ci/mmol) was purchased from Moravek Biochemicals (Brea, Calif.) and [^14C] Mannitol (50 mCi/mmol) was supplied by Amersham (Piscataway, N.J.). Human colon carcinoma derived Caco-2 cells were obtained from American Type Culture Collection (ATCC, Rockville, Md.). The growth medium, Dulbecco's modified Eagle Medium was obtained from Life Technologies (Grand Island, N.Y.). […] Fetal bovine serum (FBS) was purchased from JRH Biosciences (Lenexa, Kans.). Culture flasks (75 cm^2 growth area), polyester Transwells® (pore size 0.4 Cm with diameter 6.5 mm) and polyester membranes (pore size 0.4 Cm) were procured from Costar (Bedford, Mass.). The buffer components and solvents were obtained from Fisher Scientific (St. Louis, Mo.). All the di-peptide esters of acyclovir were custom synthesized in our laboratory. […] Cell Culture: All cultures were maintained in humidified incubator at 37° C. with a 5% carbon dioxide in air atmosphere. Caco-2 cells were obtained at passage 25 from American Type Culture Collection (ATCC) and grown in plastic tissue culture flasks. […] When 80% confluent, these cells were removed by treating them with Trypsin/EDTA and plated at a density of 100,000 cells/cm^2 on collagen coated plastic dishes containing clear polyester membranes (0.636 cm^2, […]) or 12-well tissue culture treated plastic plates. Cells were then grown in medium containing 10% FBS (heat-inactivated). […] [^14C] […] Metabolism studies in Cell Suspensions: Confluent Caco-2 cells, grown in tissue culture flasks were isolated with the aid of mechanical scraper and washed thrice with DPBS. […] One-hundred micro-liters of samples were withdrawn at predetermined time intervals and the sample was purified by precipitating the cellular proteins into the organic solvent mixture and stored at −80° C. until further analysis. The protein content of the cell suspension was determined by the method of Bradford using bovine serum albumin as the standard (BioRad protein estimation kit, Hercules, Calif.). […] Transport studies: Transport experiments were done using Side-Bi-Side™ diffusion cells (type VSC-1, Crown Glass Company Inc.) and Transwell® inserts. Prior to the experiment with Gly-Sar, Caco-2 cell monolayers grown on the clear polyester membranes and Transwell® inserts were washed with DPBS (pH 6.0) and incubated at 37° C. Freshly prepared drug solutions in DPBS (pH 6.0) was placed in the donor chamber and the receiver chamber was filled with DPBS. The volumes of donor and receptor chambers were 3 ml each for Side-Bi-Side™ diffusion cells and 0.5 ml and 1.5 ml respectively for Transwell® inserts. […] The samples were stored at −80° C. until analyzed HPLC. All experiments were performed at 37° C. […] The concentration dependent uptake of glycylsarcosine was studied using [^3H] […] For Dixon plots and Dose Response studies [^3H] […] Following incubation, the cell monolayers were washed three times with ice-cold HEPES buffer to terminate the uptake experiment. After the washings cells were lysed overnight using 1 ml 0.1% (w/v) Triton X-100 in 0.3 N NaOH at room temperature. Aliquots (500 μl) from each well were then transferred to scintillation vials containing 5 ml scintillation cocktail (Fisher Scientific, Fairlawn, N.J.). […] The amount of protein in the cell lysate was measured by the BioRad protein estimation kit using bovine serum albumin as standard (BioRad Protein estimation Kit, Hercules, Calif.). Analytical Procedures: All samples were assayed using HPLC. […] The column used was a C18 Luna column 4.6×250 mm (Phenomenex). The mobile phase consisted of a mixture of buffer and an organic modifier. The percentage of organic phase was varied in order to elute compounds of interest.

Aqueous solubility = assay type: physicochemical
[1] = New Zealand albino, rabbit
HSV-1 = assay: In vitro antiviral screening, CPE inhibition in HFF cells; assay type: cell-based, herpes simplex virus 1
in vitro = details: New Zealand albino, rabbit
EBV = assay: In vitro antiviral screening, VCA Elisa; assay type: cell-based, epstein-barr virus
[2] = tested on: rabbit corneal cell line (SIRC)
HSV-2 = assay: In vitro antiviral screening, CPE inhibition in HFF cells; assay type: cell-based, herpes simplex virus 2
HCMV = assay: as above; assay type: cell-based, human cytomegalovirus
VZV = assay: In vitro antiviral screening, CPE inhibition in HFF cells; assay type: cell-based, varicella zoster virus
[3] = tested on: oligopeptide transporter on the rabbit cornea
[4] = rats, portal vein
[5] = rats, jugular vein
[6] = tested on: human fibroblast foreskin cells (HFF)
Caco-2 cell suspension = details: Caco-2, pH 7.4
HSV-1 strain RE = assay: HSV-1 stromal keratitis rabbit model, topical treatment, SLE scores; assay type: in vivo; details: 13 days post-inoculation, 1% topical
Source text: (§1) The rabbit eye is an excellent model to study acute HSV-1 epithelial keratitis. Also, spontaneous and induced ocular HSV-1 shedding and corneal epithelial disease in rabbits has been used as a model of human ocular HSV-1 reactivation and recurrence. HSV-1 strain McKrae was used in studies for epithelial keratitis. HSV-1 strain RE was used for studies of HSV stromal keratitis.
ii) Stromal Keratitis: The experiment is similar to the part (i) experiment as far as the treatment cycles for all experimental drugs (TFT and Val-Val-ACV) are concerned. The effect of Val-Val-ACV on stromal keratitis induced by intrastromal injection with a high (20 μl of a 1×10^7 pfu/ml stock) titer of HSV-1RE strain was compared to that of TFT. Each compound at 1% concentration (TFT=33 mM, Val-Val-ACV=18.6 mM) was applied topically. The same scoring as noted in Table 4 is used for stromal keratitis. Emphasis is placed on the stromal edema and visibility into the aqueous chamber and the visualization of the pupil and iris.
A group of ten rabbits were used to study each compound. Both eyes of all rabbits were treated. Three to four groups of 10 rabbits are used in one experiment. This includes vehicle control, TFT, and the newly synthesized antiviral Val-Val-ACV.

HSV-1 strain McKrae = assay: HSV-1 epithelial keratitis rabbit model, topical treatment, SLE scores; assay type: in vivo; details: 14 days post-inoculation, 1% topical 5 times per day
Source text: as §1
i) Epithelial Keratitis: A group of ten rabbits was used to study each compound. Both eyes of all rabbits were used. An aqueous vehicle (like a placebo) and one positive control were obtained using 1% TFT (Viroptic®). Each compound at 1% concentration (TFT=33 mM, Gly-Gly-ACV=26.6 mM, Val-Val-ACV=18.6 mM) were applied (50 μl) topically 5 times per day every two hours starting at 8:00 a.m. and ending at 4:00 p.m. The treatment began on the 3rd post-inoculation day and continued for 5 consecutive days. Slit-lamp examinations were performed once every day for 8 days and thereafter once every other day until lesions resolved.

[7] = oral 20.0 mg/kg equivalent, total concentration in terms of ACV
[8] = oral, analyte amino acid intermediate

Nc1nc2c(ncn2COCCO)c(=O)[nH]1 [ACV, 2-amino-1,9-dihydro-9-[(2-hydroxyethoxy)methyl]-6H-purin-6-one]
effect on the uptake of [3H] Gly-Sar (hPEPT1; Caco-2, pH 6.0, 10 minutes): did not inhibit | solubility (Aqueous solubility; 25° C.): 2500 µg/mL (≈ 11.1 mM) | solubility (Aqueous solubility; aqueous medium, 37° C., read-out: saturable solubility): 2000 µg/mL (≈ 8.88 mM) | Papp [1]: 4.24 ×10⁻⁶ cm/s | EC50 (HSV-1; Human alphaherpesvirus 1, HFF, read-out: EC50 (concentration required to inhibit viral cytopathogenicity by 50%), HSV-1, CPE Inhibition): 7.1 µM | EC50 (HSV-1; Human alphaherpesvirus 1, HFF, HSV-1, running text, read-out: EC50 against HSV-1): 7.1 µM | Papp (in vitro): 4.24 ± 1.41 ×10⁻⁶ cm/s | EC50 (EBV; human gammaherpesvirus 4, EBV, VCA Elisa): 7.5 µM | percent survival ([2]; SIRC cells, 0.025 mM): 94.71% | percent survival ([2]; SIRC cells, 0.1 mM): 89.41% | percent survival ([2]; SIRC cells, 0.5 mM): 69.81% | percent survival ([2]; SIRC cells, 1 mM): 57.37% | % viable cells ([2]; SIRC cells, 5 mM): 49.1±4.2% | percent survival ([2]; SIRC cells, 5 mM): 49.12% | EC50 (HSV-2; Human alphaherpesvirus 2, HFF, HSV-2, CPE Inhibition): 6.6 µM

CC(C)C(NC(=O)CN)C(=O)OCCOCn1cnc2c(=O)[nH]c(N)nc21 (stereo not drawn) [Gly-Val-ACV, Glycine-Valine-Acyclovir]
EC50 (HCMV): 59.5 µM | Vmax of Gly-Sar uptake in presence of the drug (hPEPT1; Gly-Sar with drug (10 mM), Lineweaver-Burk): 0.095 ± 0.07 µmol/min/mg | Ki (hPEPT1; Lineweaver-Burk): 1820 ± 340 µM | Ki (hPEPT1; Michaelis-Menten): 1420 ± 240 µM | Vmax of concentration dependent transport (Caco-2 monolayers): 0.014±0.00058 moles cm^−2 min^−1 | inhibition in transport in presence of Gly-Sar (Caco-2 monolayers): 63 % inhibition | Papp (Caco-2 monolayers; Caco-2, pH 6): 2.80±0.59 ×10^−6 cm/sec | Papp (Caco-2 monolayers; Caco-2, pH 7.4): 5.23±0.57 ×10^−6 cm/sec | Km (Caco-2 monolayers; read-out: Km of concentration dependent transport): 3.16 ± 0.31 mM | EC50 (VZV): 0.38 µM | Papp (% Control) of [3H] Val-ACV [3]: 23.7 (±6.6) % Control | AUC(0-t)(TC) [4, 7]: 416.1 ± 140.9 µg·min/mL | AUCinf(TC) [4, 7]: 598.7 ± 164.1 µg·min/mL | Clast(TC) ([4]; oral): 810 ± 120 ng/mL | Tmax(TC) ([4]; oral): 0.357 ± 0.0962 h | AUC(0-t)(ACV) ([4]; oral, analyte acyclovir): 347.8 ± 108.2 µg·min/mL | Cl(Acv) ([4]; oral, analyte acyclovir): 12.5 ± 5.5 mL/min | Cmax(ACV) ([4]; oral, analyte acyclovir): 4060 ± 1440 ng/mL | MRT(ACV) ([4]; oral, analyte acyclovir): 1.07 ± 0.0892 h | AUC(0-t)(AA) [4, 8]: 143.6 ± 51.4 µg·min/mL | Cl(AA) [4, 8]: 31.9 ± 5.3 ml min^−1I | Cmax(AA) [4, 8]: 990 ± 540 ng/mL | Cmax(TC) ([4]; oral, total concentration in terms of ACV): 4070 ± 1030 ng/mL | EC50 (HSV-1; read-out: EC50 (concentration required to inhibit viral cytopathogenicity by 50%)): 12.6 µM | AUC(0-t)(CC) ([5]; oral 20.0 mg/kg equivalent): 633.8 ± 115.5 µg·min/mL | AUCinf(CC) ([5]; oral 20.0 mg/kg equivalent): 900.7 ± 74.8 µg·min/mL | Clast(CC) ([5]; oral): 1100 ± 210 ng/mL | Cmax(CC) ([5]; oral): 7200 ± 3300 ng/mL | Tmax(CC) ([5]; oral): 0.37 ± 0.138 h | AUC(0-t)(ACV) ([5]; oral, analyte acyclovir): 571.68 ± 99.22 µg·min/mL | Cl(ACV) ([5]; oral, analyte acyclovir): 13.3 ± 3.5 mL/min | Cmax(ACV) ([5]; oral, analyte acyclovir): 6900 ± 1500 ng/mL | MRT(ACV) ([5]; oral, analyte acyclovir): 1.327 ± 0.1773 h | AUC(0-t)(AA) [5, 8]: 133.1 ± 48.2 µg·min/mL | Cl(AA) [5, 8]: 26.8 ± 4.5 mL/min | EC50 (EBV): 5.61 µM | CC50 [6]: > 160 µM | % viable cells [2]: 81.1±6.7% | 10^2 × kobs (Caco-2 cell suspension): 0.637 ± 0.01 min^−1mg^−1 protein | t1/2 (Caco-2 cell suspension; human): 1.802 ± 0.04 h | EC50 (HSV-2): 22.7 µM

O=c1[nH]c(=O)n([C@H]2C[C@H](O)[C@@H](CO)O2)cc1C(F)(F)F [TFT, trifluorothymidine, reference compound]
Concentration required to achieve an SLE Score of 0.2 (HSV-1 strain RE): 33.3 mM | percent survival ([2]; SIRC cells, 0.025 mM): 86.98% | percent survival ([2]; SIRC cells, 0.1 mM): 80.48% | percent survival ([2]; SIRC cells, 0.5 mM): 64.76% | percent survival ([2]; SIRC cells, 1 mM): 54.35% | % viable cells ([2]; SIRC cells, 5 mM): 0.01% and 0.01±0.1% | percent survival ([2]; SIRC cells, 5 mM): 0.01% | Concentration required to achieve an SLE Score of 0.3 (HSV-1 strain McKrae): 33.3 mM
